This note sets out measurements from US20260132103A1, “Bumetanide Derivatives for the Therapy of Stroke and Other Neurological Diseases/Disorders Involving NKCCs” (University of Pittsburgh - Of the Commonwealth System of …, priority 2018, published 2026).

For assay [1], the system named is transient focal cerebral ischemia (tMCAO) in mice. As to the kind of experiment: Grid walking foot-fault test after tMCAO. It counts as in vivo, mouse. The settings on record: day 3 post-stroke. The text has this:
FIGS. 2A-2D: Efficacy of NKCC1 inhibitors on improving neurological function in mice after tMCAO (see Example 3). (A) Neurological score, (B) corner test, (C) foot-fault test, and (D)-(E) adhesive tape test during 1-14 day after tMCAO. Data are mean±SD, n=4-9. *p<0.05 for DMSO vs STS66, **p<0.05 for DMSO vs STS5, ***p<0.05 for DMSO vs BMT, #p<0.05 for BMT vs STS66, ###p<0.05 for STS5 vs STS66.
Transient focal cerebral ischemia was induced in mice by intraluminal occlusion of the left middle cerebral artery (MCA) for 50 min as described previously (Chen H et al., 2005). Mice were anesthetized with 3% isoflurane in 70%: 30% N2O/O2 until they were unresponsive to the tail pinch test. Animals were then fitted with a nose cone blowing 1.5% isoflurane for anesthesia maintenance. The left common carotid artery was exposed and the occipital artery branches of the external carotid artery were isolated and coagulated. The internal carotid artery was isolated and the extracranial branch was dissected and ligated. […]
The grid walking test is sensitive to deficits in descending motor control. […] The data were expressed as the number of foot fault errors made by the forelimbs contralateral to the injured hemisphere as a percentage of total steps (Jun Zhang, et al., 2017).

For the next assay, the system named is GL26 and SB28-GFP cells. As to the kind of experiment: BrdU proliferation assay. The class given is cell-based, mouse. As to conditions: 48 h drug treatment, compared to BMT. As to the method:
FIG. 7: BrdU incorporation of GL26 cells and SB28-GFP cells following 48 h drug treatment. Data are means±SEM from three independent experiments. **P<0.01, ***p<0.001, ****p<0.0001.
Cell proliferation of GL26 and SB28-GFP cells was measured by quantifying BrdU incorporation. GL26 cells (5×10^3 cells/well) or SB28-GFP cells (1×10^3 cells/well) were seeded in 96-well plates in 100 μL media. After 24 hours in culture, cells were incubated with fresh medium plus the following reagents: DMSO vehicle (Con-Veh), BMT (B, 10 μM), TMZ (100 μM), or TMZ+B for 48 h. BrdU was added in the last 4 h period of the whole 48 h incubation. The incorporation of BrdU into newly synthesized DNA of proliferating cells was detected by using a peroxidase-conjugated antibody which reacts with the thymidine analogue BrdU. Bound anti-BrdU-peroxidase conjugated antibody was measured by a substrate reaction, and then quantified colorimetrically by an ELISA plate reader (Spectra MAX 190, Molecular Devices, Sunnyvale, CA) at dual wavelength of 450/550 nm.

The structures appear in SMILES notation.

Turning to `CCCCNc1cc(CNCC(F)(F)F)cc(S(N)(=O)=O)c1Oc1ccccc1` [STS66, 3-(Butylamino)-2-phenoxy-5-[(2,2,2-trifluoroethylamino)methyl]benzenesulfonamide], in assay [1], the foot-fault rate is recorded as 12.5±2.5%. In addition, the “inhibition of cell proliferation (BrdU incorporation)” value in the assay on GL26 and SB28-GFP cells is “more inhibition of GL26 and SB28-GFP cell proliferation than BMT”.
